Experimental data as given in patent US9045461B2, “Phenyl-heteroaryl derivatives and methods of use thereof” (TransTech Pharma, LLC, priority 2010, dated 2015).
Where a name gives a salt, the structure may show the parent alone.

How the values were obtained:
[1] = biological target: T1, sRAGE binding to β-amyloid (Homo sapiens, UniProt Q15109); assay: RAGE binding assay (ELISA), β-amyloid as the RAGE ligand; conditions: compounds tested in hydrochloride salt form, concentration at which 50% signal has been inhibited
T1 construct: extracellular domain can be isolated by proteolysis of RAGE to generate soluble RAGE (sRAGE) comprised of the V and C domains
Method: (§1) The following assay method may be used to identify compounds of Formula (I) or pharmaceutically acceptable salts thereof which are useful as inhibitors of binding of physiological RAGE ligands, such as S100b and β-amyloid, to RAGE.
(§2) S100b, β-amyloid, or CML (500 ng/100 μL/well) in 100 mM sodium bicarbonate/sodium carbonate buffer (pH 9.8) is loaded onto the wells of a NUNC Maxisorp flat bottom 96-well microtitre plate. The plate is incubated at 4° C. overnight. The wells are aspirated and treated with 50 mM imidazole buffer saline (pH 7.2) (with 5 mM CaCl2/MgCl2) containing 1% bovine serum albumin (BSA) (300 μL/well) for 1 h at RT. The wells are aspirated.
(§3) Test compounds are dissolved in nanopure water (concentration: 10-100 μM). DMSO may be used as co-solvent. 25 μL of test compound solution in 4% DMSO is added, along with 75 μL sRAGE (6 nM FAC) to each well and samples are incubated for 1 h at 37° C. The wells are washed several times with 155 mM NaCl pH 7.2 buffer saline and are soaked for several seconds between each wash.
(§4) Non-radioactive detection is performed by adding:
(§5) 10 μL Biotinylated goat F(ab′)2 Anti-mouse IgG. (8.0×10-4 mg/mL, FAC), 5 μL Alk-phos-Streptavidin (3×10-3 mg/mL FAC), 0.42 μL per 5 mL Monoclonal antibody for sRAGE (FAC 6.0×10-3 mg/mL) to 5 mL 50 mM imidazole buffer saline (pH 7.2) containing 0.2% bovine serum albumin and 5 mM CaCl2. The mixture is incubated for 30 minutes at RT.
(§6) 100 μL of complex is added to each well and incubation is allowed to proceed at rt for 1 h. Wells are washed several times with wash buffer and soaked several seconds between each wash. 100 μL 1 mg/mL (pNPP) in 1 M diethanolamine (pH adjusted to 9.8 with HCl) is added. Color is allowed to develop in the dark for 30 min to 1 h at rt. The reaction is quenched with 10 μL of stop solution (0.5-1.0 N NaOH in 50% ethanol) and the absorbance is measured spectrophotometrically with a microplate reader at 405 nm.
(§7) The IC50 (μM) value in the ELISA assay represents the concentration of compound at which 50% signal has been inhibited.

[2] = biological target: T2, sRAGE binding to S100b (Homo sapiens, UniProt Q15109); assay: RAGE binding assay (ELISA), S100b as the RAGE ligand; conditions: compounds tested in hydrochloride salt form, concentration at which 50% signal has been inhibited
T2 construct: extracellular domain can be isolated by proteolysis of RAGE to generate soluble RAGE (sRAGE) comprised of the V and C domains
Method: as §1, §2, §3, §4, §5, §6, §7

T1 sequence (Q15109 23-342 limits assumed): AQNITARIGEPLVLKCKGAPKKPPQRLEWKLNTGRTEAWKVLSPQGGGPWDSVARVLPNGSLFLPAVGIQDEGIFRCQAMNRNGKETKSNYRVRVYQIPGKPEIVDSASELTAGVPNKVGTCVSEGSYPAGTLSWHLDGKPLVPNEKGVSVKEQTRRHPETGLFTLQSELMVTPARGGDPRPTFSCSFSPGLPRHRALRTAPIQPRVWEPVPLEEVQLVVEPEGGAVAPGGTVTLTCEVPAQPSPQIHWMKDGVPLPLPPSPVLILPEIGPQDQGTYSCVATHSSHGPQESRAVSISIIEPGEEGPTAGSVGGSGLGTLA
T2 sequence (Q15109 23-342 limits assumed): as above

SMILES	IC50 [1]	IC50 [2]
CCCCc1nnc(OC[C@H]2CN(C)C[C@@H]2CO)cc1-c1ccc(OCc2ccccc2)cc1 (racemic) [Example 6, (±)-trans-{4-[5-(4-Benzyloxy-phenyl)-6-butyl-pyridazin-3-yloxymethyl]-1-methyl-pyrrolidin-3-yl}-methanol dihydrochloride]	2330 nM	2130 nM
CCCCc1nnc(OC[C@H]2CN(C)C[C@@H]2COC)cc1-c1ccc(OCc2ccccc2)cc1 (racemic) [Example 7, (±)-trans-4-(4-Benzyloxy-phenyl)-3-butyl-6-(4-methoxymethyl-1-methyl-pyrrolidin-3-ylmethoxy)-pyridazine dihydrochloride]	1520 nM	2330 nM
CCCCc1nnc(OC[C@H]2CCN(C)C[C@H]2O)cc1-c1ccc(OC2CCCCC2)cc1 (racemic) [Example 24, (±)-cis-4-[6-Butyl-5-(4-cyclohexyloxy-phenyl)-pyridazin-3-yloxymethyl]-1-methyl-piperidin-3-ol dihydrochloride]	2900 nM	2640 nM
CCCCc1nnc(OC[C@H]2CCN(C)C[C@@H]2O)cc1-c1ccc(OC2CCCCC2)cc1 (racemic) [Example 25, (±)-trans-4-[6-Butyl-5-(4-cyclohexyloxy-phenyl)-pyridazin-3-yloxymethyl]-1-methyl-piperidin-3-ol dihydrochloride]	1540 nM	1370 nM
CCCCc1nnc(O[C@H]2CCN(C)C[C@@H]2F)cc1-c1ccc(OC2CCCCC2)cc1 (racemic) [Example 41, (±)-trans-3-Butyl-4-(4-cyclohexyloxy-phenyl)-6-(3-fluoro-1-methylpiperidin-4-yloxy)-pyridazine dihydrochloride]	4040 nM	2190 nM
CCCCc1nnc(O[C@H]2CCN(C)C[C@H]2F)cc1-c1ccc(OC2CCCCC2)cc1 (racemic) [Example 42, (±)-cis-3-Butyl-4-(4-cyclohexyloxy-phenyl)-6-(3-fluoro-1-methylpiperidin-4-yloxy)-pyridazine dihydrochloride]	1800 nM	2210 nM
CCCCc1nnc(OC[C@H]2CN(C)CC[C@@H]2OC)cc1-c1ccc(OC2CCCCC2)cc1 (racemic) [Example 46, (±)-trans-3-Butyl-4-(4-cyclohexyloxy-phenyl)-6-(4-methoxy-1-methyl-piperidin-3-ylmethoxy)-pyridazine dihydrochloride]	1250 nM	1350 nM
CCCCc1nnc(OC[C@H]2CN(C)CC[C@@H]2O)cc1-c1ccc(OC2CCCCC2)cc1 (racemic) [Example 47, (±)-trans-3-[6-Butyl-5-(4-cyclohexyloxy-phenyl)-pyridazin-3-yloxymethyl]-1-methyl-piperidin-4-ol dihydrochloride]	2500 nM	2930 nM
CCCCc1nnc(O[C@@H]2CN(C)CC[C@H]2C(F)F)cc1-c1ccc(OC2CCCCC2)cc1 (racemic) [Example 48, (±)-trans-3-butyl-4-(4-cyclohexyloxy-phenyl)-6-(4-difluoromethyl-1-methyl-piperidin-3-yloxy)-pyridazine dihydrochloride]	8960 nM	2600 nM
CCCCc1nnc(C(=O)N2CC[C@@H](CN(C)C)[C@@H](OC)C2)cc1-c1ccc(OC2CCCCC2)cc1 (racemic) [Example 102, (±)-cis-[6-Butyl-5-(4-cyclohexyloxy-phenyl)-pyridazin-3-yl]-((3R,4S)-4-dimethylaminomethyl-3-methoxy-piperidin-1-yl)-methanone dihydrochloride]	1460 nM	2610 nM
CCCCc1nnc(C(=O)NC[C@@H]2CCN(C)C[C@@H]2OC)cc1-c1ccc(OC2CCCCC2)cc1 (racemic) [Example 104, (±)-cis-6-Butyl-5-(4-cyclohexyloxy-phenyl)-pyridazine-3-carboxylic acid (3-methoxy-1-methyl-piperidin-4-ylmethyl)-amide dihydrochloride]	1610 nM	1120 nM
CCCCc1nnc(C(=O)NC[C@H]2CCN(C)C[C@H]2F)cc1-c1ccc(OC2CCCCC2)cc1 (racemic) [Example 110, (±)-cis-6-Butyl-5-(4-cyclohexyloxy-phenyl)-pyridazine-3-carboxylic acid (3-fluoro-1-methyl-piperidin-4-ylmethyl)-amide dihydrochloride]	1340 nM	1040 nM
CCCCc1nnc(C(=O)N[C@H]2CCN(C)C[C@H]2O)cc1-c1ccc(OC2CCCCC2)cc1 (racemic) [Example 112, (±)-cis-6-Butyl-5-(4-cyclohexyloxy-phenyl)-pyridazine-3-carboxylic acid (3-hydroxy-1-methyl-piperidin-4-yl)-amide dihydrochloride]	1470 nM	1440 nM
CCCCc1nnc(OCCN(CC)CC)cc1-c1ccc(OCc2ccccc2)cc1 [Example 3, {2-[5-(4-Benzyloxy-phenyl)-6-butyl-pyridazin-3-yloxy]-ethyl}-diethyl-amine dihydrochloride]	2280 nM	2490 nM
CCCCc1nnc(OCCCN2CCCCC2)cc1-c1ccc(OCc2ccccc2)cc1 [Example 5, 4-(4-Benzyloxy-phenyl)-3-butyl-6-(3-piperidin-1-yl-propoxy)-pyridazine dihydrochloride]	6280 nM	3110 nM
CCCCc1nnc(OCCCN2CCOCC2)cc1-c1ccc(OCc2ccccc2)cc1 [Example 8, 4-{3-[5-(4-Benzyloxy-phenyl)-6-butyl-pyridazin-3-yloxy]-propyl}-morpholine dihydrochloride]	3720 nM	4840 nM
CCCCc1nnc(OCC2CN(C)C2)cc1-c1ccc(OCc2ccccc2)cc1 [Example 9, 4-(4-Benzyloxy-phenyl)-3-butyl-6-(1-methyl-azetidin-3-ylmethoxy)-pyridazine dihydrochloride]	3140 nM	2700 nM

The remaining compounds from weak to strong by IC50 [1], led by results:

IC50 [1]	IC50 [2]	SMILES
1240 nM	1140 nM	CCCCc1nnc(OCCCN(CC)CC)cc1-c1ccc(OCc2ccccc2)cc1 [Example 4, 3-[5-(4-Benzyloxy-phenyl)-6-butyl-pyridazin-3-yloxy]-propyl}-diethyl-mine dihydrochloride]
1230 nM	1320 nM	CCCCc1nnc(OCC2CCN(C)CC2)cc1-c1ccc(OCc2ccccc2)cc1 [Example 2, 4-(4-Benzyloxy-phenyl)-3-butyl-6-(1-methyl-piperidin-4-ylmethoxy)-pyridazine]
1090 nM	950 nM	CCCCc1nnc(OC2CCN(C)CC2)cc1-c1ccc(OCc2ccccc2)cc1 [Example 1, 4-(4-enzyloxy-phenyl)-3-butyl-6-(1-methyl-piperidin-4-yloxy)-pyridazine dihydrochloride]
960 nM	960 nM	CCCCc1nnc(OC[C@H]2CCN(C)C[C@@H]2OC)cc1-c1ccc(OC2CCCCC2)cc1 (racemic) [Example 36, (±)-trans-3-Butyl-4-(4-cyclohexyloxy-phenyl)-6-(3-methoxy-1-methyl-piperidin-4-ylmethoxy)-pyridazine dihydrochloride]
830 nM	2070 nM	CCCCc1nnc(OC[C@H]2CN(C)CC[C@H]2O)cc1-c1ccc(OC2CCCCC2)cc1 (racemic) [Example 43, (±)-cis-3-[6-Butyl-5-(4-cyclohexyloxy-phenyl)-pyridazin-3-yloxymethyl]-1-methyl-piperidin-4-ol dihydrochloride]
740 nM	740 nM	CCCCc1nnc(OC[C@H]2CCN(C)C[C@H]2OC)cc1-c1ccc(OC2CCCCC2)cc1 (racemic) [Example 35, (±)-cis-3-Butyl-4-(4-cyclohexyloxy-phenyl)-6-(3-methoxy-1-methyl-piperidin-4-ylmethoxy)-pyridazine dihydrochloride]
560 nM	970 nM	CCCCc1nnc(C(=O)N[C@@H]2CCN(C)C[C@@H]2OC)cc1-c1ccc(OC2CCCCC2)cc1 (stereo in doubt) [Example 107, 6-Butyl-5-(4-cyclohexyloxy-phenyl)-pyridazine-3-carboxylic acid (3-methoxy-1-methyl-piperidin-4-yl)-amide dihydrochloride]
320 nM	480 nM	CCCCc1nnc(OC[C@H]2CN(C)CC[C@H]2OC)cc1-c1ccc(OC2CCCCC2)cc1 (racemic) [Example 44, (±)-cis-3-Butyl-4-(4-cyclohexyloxy-phenyl)-6-(4-methoxy-1-methyl-piperidin-3-ylmethoxy)-pyridazine dihydrochloride]
